Data published in patent US20240327408A1, “COMPOUNDS CONTAINING TETRAHYDRONAPHTHYRIDINONE OR TETRAHYDROPYRIDOPYRIMIDINONE SKELETON, PREPARATION METHOD THEREFOR AND PHARMACEUTICAL USE THEREOF” (CHINA PHARMACEUTICAL UNIVERSITY, priority 2021, published 2024).

Columns and labels:
MV4; 11 cells = test: inhibiting the growth of MV4; 11 cells; type: cell-based; details: Homo sapiens
hClpP = molecular target: T1, hClpP (Homo sapiens, UniProt Q16740); test: activating ClpP hydrolysis of FITC-casein (fluorescence kinetic detection); type: biochemical; details: hClpP 1 μM, FITC-Casein 4 μM, 37° C.
T1 construct: made in house
Method in brief: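 hClpP at 1 μM final preincubated with compounds (assay-buffer dilutions 200 μM–2 nM, before mixing) 30 min at 37 °C, then 4 μM final FITC-casein added. Fluorescence read kinetically at 37 °C every 1 min for 15 min, duplicate wells.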

T1 sequence (Q16740 57-277): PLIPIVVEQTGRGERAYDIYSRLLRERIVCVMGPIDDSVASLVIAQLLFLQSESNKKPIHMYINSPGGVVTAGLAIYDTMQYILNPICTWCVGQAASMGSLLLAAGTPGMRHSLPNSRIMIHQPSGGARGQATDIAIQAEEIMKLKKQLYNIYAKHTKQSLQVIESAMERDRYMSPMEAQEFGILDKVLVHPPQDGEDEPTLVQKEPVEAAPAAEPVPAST

Compound	IC50 (MV4; 11 cells) [nM]	EC50 (hClpP) [nM]
Cn1nccc1CN1CCc2c(c(=O)n(Cc3ccccc3)c3ncccc23)C1 [Compound I-25, 6-benzyl-3-((1-methyl-1H-pyrazol-5-yl)methyl)-2,3,4,6-tetrahydropyrido[3,4-c][1,8]naphthyridine-5-(1H)-one]	1000 to 10000	10000 to 100000
N#Cc1cccc(CN2CCc3c(c(=O)n(Cc4ccc(Cl)cc4)c4ccnn34)C2)c1 [Compound I-163, 4-(4-chlorobenzyl)-7-(3-cyanobenzyl)-6,7,8,9-tetrahydropyrazolo[1,5-a]pyrido[3,4-e]pyrimidine-5(4H)-one]	1000 to 10000	1000 to 10000
Cc1cc(Cn2c(=O)c3c(c4cccnc42)CCN(Cc2ccccc2)C3)n(C)n1 [Compound I-60, 3-benzyl-6-((1,3-dimethyl-1H-pyrazol-5-yl)methyl)-2,3,4,6-tetrahydropyrido[3,4-c][1,8]naphthyridine-5-(1H)-one]	1000 to 10000	10000 to 100000
O=c1c2c(n3nccc3n1Cc1ccc(C(F)(F)F)cc1)CCN(Cc1ccccc1)C2 [Compound I-159, 4-(4-trifluoromethylbenzyl)-7-benzyl-6,7,8,9-tetrahydropyrazolo[1,5-a]pyrido[3,4-e]pyrimidine-5(4H)-one]	1000 to 10000	1000 to 10000
Cn1ccc(Cn2c(=O)c3c(c4cccnc42)CCN(Cc2ccccc2)C3)n1 [Compound I-58, 3-benzyl-6-((1-methyl-1H-pyrazol-3-yl)methyl)-2,3,4,6-tetrahydropyrido[3,4-c][1,8]naphthyridine-5-(1H)-one]	1000 to 10000	10000 to 100000
CCc1ccc(CN2CCc3c(c(=O)n(Cc4ccccc4)c4ncccc34)C2)cc1 [Compound I-22, 6-benzyl-3-(4-ethylbenzyl)-2,3,4,6-tetrahydropyrido[3,4-c][1,8]naphthyridine-5-(1H)-one]	< 1000	1000 to 10000
O=c1c2c(c3cccnc3n1Cc1ccccc1)CCN(Cc1ccccc1F)C2 [Compound I-6, 6-benzyl-3-(2-fluorobenzyl)-2,3,4,6-tetrahydropyrido[3,4-c][1,8]naphthyridine-5-(1H)-one]	< 1000	1000 to 10000
O=c1c2c(c3ccccc3n1Cc1ccc(C(F)(F)F)cc1)CCN(Cc1ccccc1)C2 [Compound I-80, 3-benzyl-6-(4-(trifluoromethyl)benzyl)-2,3,4,6-tetrahydrobenzo[c][2,7]naphthyridine-5-(1H)-one]	< 1000	< 1000
O=c1c2c(c3cccnc3n1Cc1ccccc1)CCN(CC1CC1)C2 [Compound I-1, 6-benzyl-3-(cyclopropylmethyl)-2,3,4,6-tetrahydropyrido[3,4-c][1,8]naphthyridine-5-(1H)-one]	1000 to 10000	10000 to 100000
O=c1c2c(n3ccnc3n1Cc1ccc(Cl)cc1)CCN(Cc1cccc(Cl)c1)C2 [Compound I-119, 7-(3-chlorobenzyl)-4-(4-chlorobenzyl)-6,7,8,9-tetrahydroimidazo[1,2-a]pyrido[3,4-e]pyrimidine-5(4H)-one]	< 1000	< 1000
COc1ccccc1Cn1c(=O)c2c(c3cccnc31)CCN(Cc1ccccc1)C2 [Compound I-45, 3-benzyl-6-(2-methoxybenzyl)-2,3,4,6-tetrahydropyrido[3,4-c][1,8]naphthyridine-5-(1H)-one]	< 1000	1000 to 10000
O=c1c2c(c3cccnc3n1Cc1ccccc1F)CCN(Cc1ccccc1)C2 [Compound I-40, 3-benzyl-6-(2-fluorobenzyl)-2,3,4,6-tetrahydropyrido[3,4-c][1,8]naphthyridine-5-(1H)-one]	< 1000	1000 to 10000
Cc1ccccc1Cn1c(=O)c2c(c3cccnc31)CCN(Cc1ccccc1)C2 [Compound I-43, 3-benzyl-6-(2-methylbenzyl)-2,3,4,6-tetrahydropyrido[3,4-c][1,8]naphthyridine-5-(1H)-one]	< 1000	1000 to 10000
O=c1c2c(n3nccc3n1Cc1ccc(Cl)cc1)CCN(Cc1ccccc1)C2 [Compound I-161, 4-(4-chlorobenzyl)-7-benzyl-6,7,8,9-tetrahydropyrazolo[1,5-a]pyrido[3,4-e]pyrimidine-5(4H)-one]	1000 to 10000	1000 to 10000
O=c1c2c(c3cccnc3n1Cc1ccc(C(F)(F)F)cc1)CCN(Cc1ccccc1)C2 [Compound I-70, 3-benzyl-6-(4-(trifluoromethyl)benzyl)-2,3,4,6-tetrahydropyrido[3,4-c][1,8]naphthyridine-5-(1H)-one]	< 1000	< 1000
O=c1c2c(c3cccnc3n1CC1CCCC1)CCN(Cc1ccccc1)C2 [Compound I-38, 3-benzyl-6-(cyclopentylmethyl)-2,3,4,6-tetrahydropyrido[3,4-c][1,8]naphthyridine-5-(1H)-one]	1000 to 10000	10000 to 100000
O=c1c2c(c3cccnc3n1Cc1ccncc1)CCN(Cc1ccccc1)C2 [Compound I-63, 3-benzyl-6-(pyridin-4-ylmethyl)-2,3,4,6-tetrahydropyrido[3,4-c][1,8]naphthyridine-5-(1H)-one]	1000 to 10000	10000 to 100000
O=c1c2c(n3ccnc3n1Cc1ccccc1)CCN(Cc1cccc(F)c1)C2 [Compound I-108, 7-(3-fluorobenzyl)-4-benzyl-6,7,8,9-tetrahydroimidazo[1,2-a]pyrido[3,4-e]pyrimidine-5(4H)-one]	< 1000	< 1000
O=c1c2c(c3cccnc3n1Cc1ccccc1)CCN(CC1CCCC1)C2 [Compound I-3, 6-benzyl-3-(cyclopentylmethyl)-2,3,4,6-tetrahydropyrido[3,4-c][1,8]naphthyridine-5-(1H)-one]	1000 to 10000	10000 to 100000

Continued, values first:

IC50 (MV4; 11 cells) [nM]	EC50 (hClpP) [nM]	Compound
< 1000	< 1000	CCc1ccc(Cn2c(=O)c3c(n4ccnc24)CCN(Cc2cccc(C)c2)C3)cc1 [Compound I-140, 7-(3-methylbenzyl)-4-(4-ethylbenzyl)-6,7,8,9-tetrahydroimidazo[1,2-a]pyrido[3,4-e]pyrimidine-5(4H)-one]
< 1000	1000 to 10000	O=c1c2c(c3cccnc3n1Cc1ccccc1)CCN(Cc1ccc(Cl)cc1)C2 [Compound I-19, 6-benzyl-3-(4-chlorobenzyl)-2,3,4,6-tetrahydropyrido[3,4-c][1,8]naphthyridine-5-(1H)-one]
< 1000	< 1000	Cc1ccc(Cn2c(=O)c3c(n4ccnc24)CCN(Cc2ccccc2)C3)cc1 [Compound I-132, 7-benzyl-4-(4-methylbenzyl)-6,7,8,9-tetrahydroimidazo[1,2-a]pyrido[3,4-e]pyrimidine-5(4H)-one]
< 1000	1000 to 10000	Cc1ccccc1CN1CCc2c(c(=O)n(Cc3ccccc3)c3ncccc23)C1 [Compound I-9, 6-benzyl-3-(2-methylbenzyl)-2,3,4,6-tetrahydropyrido[3,4-c][1,8]naphthyridine-5-(1H)-one]
< 1000	< 1000	COc1cccc(Cn2c(=O)c3c(c4cccnc42)CCN(Cc2ccccc2)C3)c1 [Compound I-51, 3-benzyl-6-(3-methoxybenzyl)-2,3,4,6-tetrahydropyrido[3,4-c][1,8]naphthyridine-5-(1H)-one]
< 1000	< 1000	CCc1ccc(Cn2c(=O)c3c(n4ccnc24)CCN(Cc2ccccc2)C3)cc1 [Compound I-137, 7-benzyl-4-(4-ethylbenzyl)-6,7,8,9-tetrahydroimidazo[1,2-a]pyrido[3,4-e]pyrimidine-5(4H)-one]
< 1000	< 1000	O=c1c2c(c3cccnc3n1Cc1cccc(Br)c1)CCN(Cc1ccccc1)C2 [Compound I-48, 3-benzyl-6-(3-bromobenzyl)-2,3,4,6-tetrahydropyrido[3,4-c][1,8]naphthyridine-5-(1H)-one]
< 1000	< 1000	N#Cc1cccc(CN2CCc3c(c(=O)n(Cc4ccc(F)cc4F)c4nccn34)C2)c1 [Compound I-126, 7-(3-cyanobenzyl)-4-(2,4-difluorobenzyl)-6,7,8,9-tetrahydroimidazo[1,2-a]pyrido[3,4-e]pyrimidine-5(4H)-one]
< 1000	1000 to 10000	O=c1c2c(c3cccnc3n1Cc1ccccc1)CCN(Cc1ccccc1Cl)C2 [Compound I-7, 6-benzyl-3-(2-chlorobenzyl)-2,3,4,6-tetrahydropyrido[3,4-c][1,8]naphthyridine-5-(1H)-one]
< 1000	< 1000	O=c1c2c(c3cccnc3n1Cc1ccc(F)cc1)CCN(Cc1cccc(F)c1)C2 [Compound I-71, 3-(3-fluorobenzyl)-6-(4-fluorobenzyl)-2,3,4,6-tetrahydropyrido[3,4-c][1,8]naphthyridine-5-(1H)-one]
< 1000	< 1000	O=c1c2c(c3cccnc3n1Cc1ccc(Br)cc1)CCN(Cc1cccc(Cl)c1)C2 [Compound I-78, 3-(3-chlorobenzyl)-6-(4-bromobenzyl)-2,3,4,6-tetrahydropyrido[3,4-c][1,8]naphthyridine-5-(1H)-one]
< 1000	< 1000	O=c1c2c(n3ccnc3n1Cc1ccc(F)cc1)CCN(Cc1cccc(F)c1)C2 [Compound I-113, 7-(3-fluorobenzyl)-4-(4-fluorobenzyl)-6,7,8,9-tetrahydroimidazo[1,2-a]pyrido[3,4-e]pyrimidine-5(4H)-one]
< 1000	1000 to 10000	O=c1c2c(c3cccnc3n1Cc1ccccc1)CCN(Cc1ccc(Br)cc1)C2 [Compound I-20, 6-benzyl-3-(4-bromobenzyl)-2,3,4,6-tetrahydropyrido[3,4-c][1,8]naphthyridine-5-(1H)-one]
< 1000	< 1000	COc1ccc(Cn2c(=O)c3c(n4ccnc24)CCN(Cc2cccc(C#N)c2)C3)cc1 [Compound I-146, 7-(3-cyanobenzyl)-4-(4-methoxybenzyl)-6,7,8,9-tetrahydroimidazo[1,2-a]pyrido[3,4-e]pyrimidine-5(4H)-one]
< 1000	< 1000	Cc1cccc(CN2CCc3c(c(=O)n(Cc4ccccc4)c4nccn34)C2)c1 [Compound I-110, 7-(3-methylbenzyl)-4-benzyl-6,7,8,9-tetrahydroimidazo[1,2-a]pyrido[3,4-e]pyrimidine-5(4H)-one]
